# According to patent publication US20140045908A1, “HSP90 INHIBITORY COMPOUNDS IN TREATING JAK/STAT SIGNALING-MEDIATED CANCERS” (SYNTA PHARMACEUTICALS CORP., priority 2011, published 2014):
# Tests used:
# [1] = tested on: JAK2/STAT3 signaling in HCC827 cells; test: Western blot of constitutive and IL-6 induced STAT3 activity in HCC827 cells; format: cell-based, human
# Procedure: HCC827 lung cancer cells were treated with increasing concentrations of ganetespib or P6 for 24 h followed by a 15 min stimulation with or without 50 ng/ml human recombinant IL-6. The levels of JAK2, total and phospho-STAT3, and PIM2 were analyzed by western blot. GAPDH is included as a loading control.
# (§1) Cells were disrupted in lysis buffer (CST) and solubilized in 2% SDS. Xenograft tumors (average volume of 100-200 mm3) were excised, cut in half, and flash frozen in liquid nitrogen. Each tumor fragment was lysed in 0.5 mL of lysis buffer using a FastPrep-24 homogenizer and Lysing Matrix A (MP Biomedicals, Solon, Ohio, USA) and lysates clarified by centrifugation. Equal amounts of proteins were resolved by SDS-PAGE and immunoblotted with indicated antibodies. The antigen-antibody complex was visualized and quantitated using an Odyssey system (LI-COR, Lincoln, Nebr., USA).
# [2] = tested on: JAK2 signaling in DU145 cells; test: Western blot of JAK/STAT proteins in DU145 cells; format: cell-based, human
# Procedure: DU145 cells were dosed with graded concentrations of ganetespib for 24 h and cell lysates subject to western blot to determine JAK/STAT and target protein levels using the antibodies indicated.
# DU145 cells were treated with DMSO (control, C), 15 nM, 60 nM or 240 nM ganetespib for either 24 or 48 h and lysates probed by western blot with the indicated antibodies.
# as §1
# [3] = tested on: JAK/STAT target and cell cycle gene expression in HEL92.1.7 cells; test: RNA expression profiling (RT-PCR, Affymetrix) in HEL92.1.7 cells; format: cell-based, human
# Procedure: HEL92.1.7 cells were treated with DMSO, P6 (100 or 1000 nM) or ganetespib (25 or 250 nM) for 4 h or 24 h, and total RNA extracted using Trizol (Invitrogen). RNA was purified with the RNeasy kit (Qiagen, Hilden, Germany) and converted to cDNA via an iScript kit (BioRad, Hercules, Calif., USA). Oligonucleotide primers were purchased from SABiosciences (Frederick, Md., USA). PCR was done with iQ SYBR Green Supermix (Bio-Rad), and levels of the tested genes were normalized to HPRT expression using the comparative Ct method.
# Biotinylated aRNA was generated by in vitro transcription using Affymetrix GeneChip Expression IVT labeling kit (Affymetrix, Santa Clara, Calif., USA). Fifteen micrograms of labeled aRNA was fragmented and hybridized to Affymetrix GeneChip Human Genome U133 Plus 2 arrays and scanned using a GeneChip Scanner (Affymetrix). Array data were analyzed with the Affymetrix Expression Console Software utilizing the MASS algorithm. In order to generate a threshold for identifying probe sets that have large differences between 1000 nM P6 (4 h) and 250 nM ganetespib (24 h) arrays and their controls in the absence of treatment replicates, data from four control arrays (DMSO only; two at 4 h, and two at 24 h) were used to create an expression level dependent fold-difference envelope that reflects the increasing measurement variability as expression level decreases. This envelope, used in lieu of a fixed fold-difference criteria, was formed by identifying the xth percentile expression-level difference (where x was large, typically 99.9%) at each mean expression level bin. To achieve this, data were used from the six possible comparisons from the four DMSO-only arrays. The resulting, smoothed threshold fold-difference envelope was then applied to the two compound-treated/control array pairs to identify those probe-sets that have large expression level differences between treatment and control. For hierarchical analysis, genes with greater than two fold changes in expression with 250 nM ganetespib were clustered using established algorithms in Cluster (49) and a subset visualized by TreeView.
# HEL92.1.7 cells = test: Flow cytometry cell cycle analysis; format: cell-based, human
# Procedure: HEL92.1.7 cells were plated at 0.5×10^6 cells/mL and treated as indicated. Cells were harvested and stained with propidium iodide using the BD Cycle TEST PLUS Reagent Kit (BD Biosciences, San Jose, Calif., USA) according to the manufacturer's instructions. Twenty thousand cells were analyzed for their DNA content using a FACS Caliber cytometer (BD Biosciences).
# [4] = tested on: Cdk1, phospho-Chk2, cyclins in HEL92.1.7 cells; test: Western blot of cell cycle proteins in HEL92.1.7 cells; format: cell-based, human
# Procedure: Cells were harvested at the indicated time points and the levels of total and phospho-Cdk1, phospho-Chk2 and GAPDH analyzed by western blot.
# FIG. 12 illustrates the effects of ganetespib on JAK/STAT and cell cycle protein expression. HEL92.1.7 cells were treated with 100 nM ganetespib and subject to western blot to determine the levels of Cdk1, cyclin B1, cyclin A1, JAK2, total and phospho-STAT3, and GAPDH at hourly intervals over an 11 h time course.
# as §1
# MV4-11 xenografts = test: MV4-11 acute myeloid leukemia xenograft model; format: in vivo, SCID mice
# Procedure: Mice bearing established MV4-11 xenografts (100-200 mm3, n=8 mice/group) were i.v. dosed (arrowheads) with ganetespib at either 25 or 150 mg/kg once weekly for 3 weeks, or at the HNSTD of 25 mg/kg five-times per week, as indicated. % T/C values are indicated to the right of each growth curve and the error bars are the s.e.m.
# Eight-week-old female immunodeficient CB-17/Icr-Prkdcscid/Crl (SCID) mice (Charles River Laboratories, Wilmington, Mass.) were maintained in a pathogen-free environment, and all in vivo procedures were approved by the Synta Pharmaceuticals Corp. Institutional Animal Care and Use Committee. For the MV4-11 model, tumor cells were subcutaneously implanted in SCID mice as previously described (34). Tumor volumes (V) were calculated by caliper measurements of the width (W), length (L), and thickness (T) of each tumor using the formula: V=0.5236 (LWT).
# Animals with 100-200 mm^3 tumors were then randomized into treatment groups of 8 and i.v. dosed via the tail vein at 10 mL/kg body weight with either vehicle or ganetespib formulated in 10/18 DRD (10% DMSO, 18% Cremophor RH 40, 3.6% dextrose, 68.4% water). Tumor growth inhibition was monitored by tumor volume measurements twice weekly. As a measurement of in vivo efficacy, the % T/C value was determined from the change in average tumor volumes of each treated group relative to the vehicle-treated or itself in the case of tumor regression. Statistical significance was determined using a Kruskal-Wallis one-way ANOVA followed by the Tukey Test multiple comparison procedure.
# For both models, studies were conducted at the highest non-severely toxic doses (NHSTDs) of 150 mg/kg ganetespib one-time per week or 25 mg/kg ganetespib 5×/week for 3 weeks based on prior tolerability studies conducted in non-tumor bearing mice.
# [5] = 24 h, absence of external ligand
smiles,measurement,setting,value
"CC(C)c1cc(-c2nnc(O)n2-c2ccc3c(ccn3C)c2)c(O)cc1O [ganetespib, 3-(2,4-dihydroxy-5-isopropyl-phenyl)-4-(1-methyl-indol-5-yl)-5-hydroxy-[1,2,4] triazole]",JAK2 expression,[1]; [5],dose-dependent decrease in JAK2 expression
same,constitutive STAT3 activity,[1]; [5],loss of STAT3 activity
same,JAK/STAT signaling stimulated by exogenous IL-6,[1]; 24 h then 15 min 50 ng/ml IL-6,blocked JAK/STAT signaling stimulation
same,JAK1 kinase level,"[2]; 15-240 nM, 24 or 48 h",not targeted for degradation
same,"JAK2, phospho-STAT3 and phospho-SHP2 levels",[2]; 24 h,"Loss of JAK2, phospho-STAT3 and phospho-SHP2"
same,expression of cell cycle-related genes,"[3]; 250 nM, 24 h",selectively altered the expression of a large set of genes involved in cell cycle-related activities
same,expression of heat shock protein genes,"[3]; 250 nM, 24 h",up-regulation of numerous heat shock protein genes
same,expression of JAK/STAT target genes (SOCS and PIM family members),"[3]; 4 hour P6 (1000 nM), 24 hour ganetespib (250 nM)",downregulated
same,cell cycle distribution,HEL92.1.7 cells,"temporal G1 and G2/M arrest in HEL92.1.7 cells, with concomitant loss of S phase"
same,level of phospho-Chk2,[4],reduced
same,cyclins A1 and B1 levels,"[4]; 100 nM, 11 h time course",temporal accumulation of cyclins A1 and B1
same,Cdk1 protein expression,"[4]; ganetespib 250 nM or P6 1000 nM, 24-48 h",Reduced protein levels
same,tumor regression,MV4-11 xenografts; 25 mg/kg i.v. 5×/week for 3 weeks,84%
same,tumor growth inhibition,MV4-11 xenografts; 25 or 150 mg/kg i.v. once weekly for 3 weeks,significant and dose dependent tumor growth inhibition
same,time tumor growth stayed suppressed once treatment was discontinued,MV4-11 xenografts; both dosing regimens,up to a week or more
